# Assay results published in patent US6541463B1, “Inhibitors of type 5 and type 3 17β-hydroxysteroid dehydrogenase and methods for their use” (Endorecherche, Inc., priority 1998, dated 2003).
# Tests used:
# [1] = system: ZR-75-1 cells; test: Estrogenic activity: stimulation of proliferation of ZR-75-1 cells; assay type: cell-based, human; settings: Table 4′
# Description: […] The manner in which the stimulation is determined is described in “Other Tests; C-Estrogenic/Antiestrogenic activity” Lower numbers are desirable. ND means that a determination was not done.
# Estrogenic/antiestrogenic activity of some preferred compounds has been measured using the […] human breast cancer cell line as described in more detail below.
# All media and medium supplments were purchased from Sigma. Cells were subcultured weekly by treatment with a pancreatic solution containing EDTA (0.2 g/L). The cell cultures used for the experiments herein describied were between passages 89 and 94.
# Cells in their logarithmic growth phase were harvested, briefly centrifuged, and resuspended in RPMI 1640. Cells were then plated in triplicate in LIMBRO 24-well plastic culture plates (2 cm^2/well). Since plating density influences the effect of hormones on ZR-75-1 cell growth, cells were plated at a density of 1×10^4 cells/well. […] Control cultures received the ethanol vehicle only. Cells were then allowed to grow at 37° C. for 10 days with medium changes (of identical composition) every 2 days.
# After E2 and/or antiestrogen treatment, cells were harvested by addition of 0.5 ml of a pancreatin solution (Sigma) for 5-10 min at 37° C. before addition of 0.5 mnl of RPMI 1640 containing 5% dextran coated […] bovine serum in order to block enzymatic action. Cell number (0.10 ml aliquot) was determined by measurement of DNA content as previously described (Simard et al., Endocrinology 126: 3223-3231,1990).
# [2] = molecular target: T1, estrogen receptor (Rattus norvegicus, UniProt P06211); test: Estrogen receptor (ER) assay: inhibition of [3H]E2 binding, uterine cytosol
# T1 construct: from tissue; host or cells: uterine cytosol of gonadectomized female Sprague-Dawley rats
# T1 sequence (P06211 1-600): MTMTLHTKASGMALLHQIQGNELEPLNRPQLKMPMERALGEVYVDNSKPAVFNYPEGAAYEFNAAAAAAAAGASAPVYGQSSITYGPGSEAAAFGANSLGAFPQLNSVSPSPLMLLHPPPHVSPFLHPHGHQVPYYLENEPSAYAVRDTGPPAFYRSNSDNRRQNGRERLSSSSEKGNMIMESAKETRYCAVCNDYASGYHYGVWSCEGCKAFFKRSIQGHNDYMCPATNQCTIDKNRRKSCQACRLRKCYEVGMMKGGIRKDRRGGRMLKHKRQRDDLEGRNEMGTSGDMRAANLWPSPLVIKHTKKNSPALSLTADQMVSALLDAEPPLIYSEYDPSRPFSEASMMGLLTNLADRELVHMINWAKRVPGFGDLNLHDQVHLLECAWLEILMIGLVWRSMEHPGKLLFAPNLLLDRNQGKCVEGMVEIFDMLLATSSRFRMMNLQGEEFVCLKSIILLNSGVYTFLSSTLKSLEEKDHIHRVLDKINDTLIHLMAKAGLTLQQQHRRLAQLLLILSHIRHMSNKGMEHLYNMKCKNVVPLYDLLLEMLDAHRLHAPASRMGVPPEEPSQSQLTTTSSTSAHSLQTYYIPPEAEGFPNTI
# Description: Female Sprague-Dawley rats (Crl: CD(SD)Br) weighing 200-300 g were obtained from Charles-River Inc. (St-Constant, Québec, Canada). The rats were gonadectomized under general anesthesia (Isoflurane) and killed by cervical dislocation 24 hours later. The uteri were rapidly removed, dissected free from adhering tissue and frozen on dry-ice. Uteri were kept at −80° C. until assay. All subsequent steps were performed at 0-4° C. Uteri were homogenized in 10 vol (wt/vol) of buffer A (25 mM Tris-HCI, 1.5 mM EDTA disodium salt, 10 mM α-monothioglycerol, 10% glycerol, and 10 mM sodium molybdate, pH 7.4), using a Polytron PT-10 homogenizer (Brinkman Instruments, Canada) at a setting of 5 for three periods of 10 sec, with intervals of 10 sec for cooling. The homogenate was then centrifuged at 105,000×g for 60 min in a Beckman L5-65 ultracentrifuge (Fullerton, Calif.). The protein concentration of the cytosol fraction was measured according to the method of Bradford (Anal. Biochem. 72: 248-254, 1976), using bovine serum albumin as standard.
# Estrogen binding was measured using the dextran-coated charcoal adsorption technique as described previously (Asselin et al., Endocrinology, 101: 666-671, 1977; Asselin and Labrie, J. Steroid Biochem., 9: 1079-1082, 1978). Briefly, [^3H]E2 solubilized in ethanol were diluted into buffer A. Aliquots of uterine cytosol preparation (0.1 ml) were incubated with 5 nM [^3H]E2 (˜200,000 cpm, 0.1 ml) in the presence or absence of the indicated concentrations of unlabeled compounds (0.1 ml, prepared in buffer A containing 10% ethanol) for 3 h at room temperature. Unbound steroids were then separated by incubation for 15 min at 0-4° C. with 0.3 ml 0.5% Norit-A and 0.05% Dextran T-70 in buffer B (1.5 mM EDTA disodium salt, 10 mM monothioglycerol, and 10 mM Tris-HCI, pH 7.4) and centrifuged at 3,000×g for 15 min. Aliquots of the supernatant (0.3 ml) were removed for radioactivity measurement.
SMILES,"% Inhibition Estrogen Receptor E^−6 ([2]; Table 4′, E^−6)","% Inhibition Estrogen Receptor E^−8 ([2]; Table 4′, E^−8)",further results
"CC1CC(=O)OC2(CCC3C4CCc5cc(O)ccc5C4CCC32C)C1 [PB-132-142, 3-Hydroxy-1,3,5(10)-estratrien-17(R)-spiro-2′-(4′-methyl-6′-oxo)tetrahydropyran]",,,"ZR-75-1 Activity, Basal E^−6 ([1]; E^−6): 91%; ZR-75-1 Activity, Basal E^−8 ([1]; E^−8): 38%"
"COCCOc1cc2c(cc1C(=O)O)C1CCC3(C)C(CCC34CCC(C)(C)C(=O)O4)C1CC2 [EM-1405, 2-Carboxy-3-(2″-methoxyethyloxy)-1,3,5(10)-estratrien-17(R)-spiro-2′-(5′,5′-dimethyl-6′-oxo)tetrahydropyran]",0%,0%,
CC(=O)O[C@]1(C)C(=O)CCC2C3C=C(C)C4=CC(=O)C=C[C@]4(C)C3CC[C@@]21C (stereo partly drawn) [CS-237],,,% Inhibition Estrogen Receptor E^−6 ([2]; E^−6): 0%; % Inhibition Estrogen Receptor E^−8 ([2]; E^−8): 0%
COCCOc1ccc2c(c1)C(=O)CC1C2CCC2(C)C1CCC21CCC(C)(C)C(=O)O1 (stereo not drawn) [EM-1408-CS],6%,0%,
CN1C(=O)C=C[C@]2(C)C3CC[C@@]4(C)C(CC[C@@]45CCCC(=O)O5)C3CCC12 (stereo partly drawn) [EM-1122-CS],,,"% Inhibition Estrogen Receptor E^−6 ([2]; Table 5 column 16, E^−6): 0%; % Inhibition Estrogen Receptor E^−8 ([2]; Table 5 column 16, E^−8): 2%"
"CC1(C)CCC2(CCC3C4CCc5cc(OCCN6CCCCC6)ccc5C4CCC32C)OC1=O [EM-1390-CS, 3-(N-piperidyl-ethyl)-1,3,5(10)-estratrien-17(R)-spiro-2′-(5′,5′-dimethyl-6′-oxo)-tetrahydropyran]",0%,0%,
COc1ccc2c(c1)C(=O)CC1C2CC[C@@]2(C)C1CC[C@@]21CCC(C)(C)C(=O)O1 (stereo partly drawn) [EM-1394],8%,4%,
CC1(C)CCC2(CCC3C4CCc5c(cc(Cl)c(O)c5Cl)C4CCC32C)OC1=O (stereo not drawn) [EM-1391-CS],0%,0%,
"CSCCOc1ccc2c(c1)CCC1C2CCC2(C)C1CCC21CCCC(=O)O1 [CS-242, 3-Methylthioethyloxy-1,3,5(10)-estratrien-17(R)-spiro-2′-(6′-oxo) Tetrahydropyran]",0%,0%,
COc1cc2c(cc1C)C1CCC3(C)C(CCC34CCC(C)(C)C(=O)O4)C1CC2 (stereo not drawn) [EM-1412-CS],0%,0%,
CCC[C@]1(F)CC2C3C=CC4=CC(=O)CC[C@]4(C)C3CC[C@]2(C)C1=O (stereo partly drawn) [EM-1183],,,% Inhibition Estrogen Receptor E^−6 ([2]; E^−6): 0%; % Inhibition Estrogen Receptor E^−8 ([2]; E^−8): 0%
CC1(C)CC[C@@]2(CCC3C4CCc5cc(F)ccc5C4CC[C@@]32C)OC1=O (stereo partly drawn) [EM-1157-CS],0%,0%,
CC12CCC3c4ccc(F)cc4CCC3C1CCC21CCCC(=O)O1 (stereo not drawn) [EM-1170-CS],0%,0%,
COc1ccc(CC(=O)O[C@]2(C(C)=O)CCC3C4C=C(C)C5=CC(=O)C=C[C@]5(C)C4CC[C@@]32C)cc1 (stereo partly drawn) [EM-1291],,,% Inhibition Estrogen Receptor ([2]; E^−6): 0%; % Inhibition Estrogen Receptor ([2]; E^−8): 0%
"C[C@]12CCC(=O)C=C1C=C[C@@H]1[C@@H]2CC[C@]2(C)C(=O)C3(CC4CC4C3)C[C@@H]12 (stereo partly drawn) [EM-1299, 4,6-Androstadien-3,17-dione-16-spirobicyclo[3′.1′.0′]-hexane]",,,% Inhibition Estrogen Receptor E^−6 ([2]; E^−6): 3%; % Inhibition Estrogen Receptor E^−8 ([2]; E^−8): 3%
"CC1(C)CC[C@@]2(CCC3C4CCc5cc(C(=O)O)ccc5C4CC[C@@]32C)OC1=O (stereo partly drawn) [EM-1401, 3-Carboxy-1,3,5(10)-estratrien-17(R)-spiro-2′-(5′,5′-dimethyl-6′-oxo)tetrahydropyran]",2%,5%,
CN(C)CCOc1ccc2c(c1)CCC1C2CCC2(C)C1CCC21CCC(C)(C)C(=O)O1 (stereo not drawn) [EM-1389-CS],0%,0%,
CCCC(=O)OC1(C(C)=O)CCC2C3C=C(C)C4=CC(=O)CC(C)C4(C)C3CCC21C (stereo not drawn) [CS-245],,,% Inhibition Estrogen Receptor ([2]; E^−6): 2%; % Inhibition Estrogen Receptor ([2]; E^−8): 0%
CCCC(=O)O[C@]1(C)C(=O)CCC2C3C=C(C)C4=CC(=O)CC[C@]4(C)C3CC[C@@]21C (stereo partly drawn) [EM-1078],,,% Inhibition Estrogen Receptor E^−6 ([2]; E^−6): 0%; % Inhibition Estrogen Receptor E^−8 ([2]; E^−8): 5%
CCCCN(C)C(=O)[C@@]1(OC(C)=O)CCC2C3C=C(C)C4=CC(=O)CC[C@]4(C)C3CC[C@@]21C (stereo partly drawn) [EM-1165],,,% Inhibition Estrogen Receptor ([2]; E^−6): 0%; % Inhibition Estrogen Receptor ([2]; E^−8): 0%
CN(C)C(=O)c1ccc2c(c1)CCC1C2CCC2(C)C1CCC21CCC(C)(C)C(=O)O1 (stereo not drawn) [EM-1403],0%,0%,
"COCCOc1cc2c(cc1C(F)(F)F)[C@H]1CC[C@@]3(C)[C@@H](CC[C@@]34CCC(C)(C)C(=O)O4)[C@@H]1CC2 [EM-1438, 3-(2′-Methoxyethoxy)-2-trifluoromethyl-1,3,5(10)-estratrien-17(R)-spiro-2′-(5′,5′-dimethyl-6′-oxo)tetrahydropyran]",0%,4%,
CC(=O)O[C@]1(C(=O)N(C)C)CCC2C3C=C(C)C4=CC(=O)CC[C@]4(C)C3CC[C@@]21C (stereo partly drawn) [EM-1159],,,% Inhibition Estrogen Receptor ([2]; E^−6): 1%; % Inhibition Estrogen Receptor ([2]; E^−8): 0%
CC1(C)CC[C@@]2(CC[C@H]3[C@@H]4CCc5c(cc(Br)c(O)c5Br)[C@H]4CC[C@@]32C)OC1=O [EM-1382-CS],3%,0%,
COc1c(Br)cc2c(c1Br)CCC1C2CCC2(C)C1CCC21CCC(C)(C)C(=O)O1 (stereo not drawn) [EM-1385-CS],4%,2%,
"CC1(C)CC[C@@]2(CCC3C4CCc5cc6oncc6cc5C4CC[C@@]32C)OC1=O (stereo partly drawn) [EM-1407-CS, 1,3,5(10)-estratrien-(2,3-oximino)-17(R)-spiro-2′-(5′,5′-dimethyl-6′-oxo)tetrahydropyran]",0%,2%,
CC1(C)CCC2(CCC3C4CCc5c(cc(Cl)c(OS(C)(=O)=O)c5Cl)C4CCC32C)OC1=O (stereo not drawn) [EM-1392-CS],0%,0%,
